The values that follow come from ChEMBL document CHEMBL1201862, “PubChem BioAssay data set” (2004).

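Method: 48-hour compound exposure of cells in 96-well plates, five concentrations, linear interpolation of endpoints. GI50: concentration for 50% inhibition of growth.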 Active and inactive are the calls of the source. Rule as the data show it: active = GI50 up to about 1.1 µM and inactive = higher.

Among the test systems are DU-145; CAKI-1; M14; TK-10; SK-OV-3; 786-0; HT-29; A549; OVCAR-8; COLO 205; UACC-257; HL-60; HCC 2998; PC-3; NCI/ADR-RES; UACC-62; K562; SF-268; OVCAR-4.
Test in all cases: growth of human tumour cells (NCI), 48 h

Consider `CCCc1cn2c(/C=N/NC(=N)N)c(-c3ccc([N+](=O)[O-])cc3)nc2s1`, for which the GI50 in the assay on DU-145 is 1.77 µM (inactive); in the assay with CAKI-1, 1.69 µM (inactive); in the assay with M14, 1.93 µM (inactive); in the assay with TK-10, 1.81 µM (inactive); in the assay on SK-OV-3, 1.79 µM (inactive); with 786-0 it was 0.853 µM (active). For the same molecule, the GI50 is 0.275 µM (active) with HT-29; 1.71 µM (inactive) with A549; 1.9 µM (inactive) in the assay with OVCAR-8; 0.891 µM (active) with COLO 205; 1.73 µM (inactive) in the assay with UACC-257; 0.45 µM (active) with HL-60. The GI50 with HCC 2998 is 0.578 µM (active); in the assay on PC-3, 2.01 µM (inactive); with NCI/ADR-RES, 1.89 µM (inactive); in the assay on UACC-62, 1.82 µM (inactive); in the assay with K562 it was 0.286 µM (active); in the assay with SF-268 it was 2.16 µM (inactive). In addition, the GI50 in the assay on OVCAR-4 was 1.06 µM (active).
With `CC(=O)C(CN1CCOCC1)C(c1ccccc1)c1c(O)c2ccccc2oc1=O` (stereo not given), the GI50 in the assay on DU-145, in the assay with CAKI-1, in the assay on M14, in the assay with TK-10, with SK-OV-3 and with 786-0 was > 100 µM (inactive) each time. Moreover, the GI50 with HT-29 was > 100 µM (inactive); in the assay on A549, > 100 µM (inactive); in the assay with OVCAR-8, > 100 µM (inactive); in the assay with COLO 205 it was > 100 µM (inactive); with UACC-257, > 100 µM (inactive); with HL-60 it was 41.3 µM (inactive). Also, the GI50 with HCC 2998, with PC-3, in the assay on NCI/ADR-RES, in the assay on UACC-62, in the assay on K562 and in the assay on SF-268 was > 100 µM (inactive) in each case. Moreover, the GI50 in the assay with OVCAR-4 was > 100 µM (inactive).
As for `COC(=O)/C=C/CCC#Cc1ccccc1C#CCC/C=C/C(=O)OC`, the GI50 was 32 µM (inactive) in the assay with DU-145; 2.88 µM (inactive) in the assay with CAKI-1; 8.97 µM (inactive) in the assay on M14; 30.7 µM (inactive) with TK-10; 21.7 µM (inactive) in the assay on SK-OV-3; 4.98 µM (inactive) in the assay with 786-0. Also, the GI50 in the assay with HT-29 was 3.49 µM (inactive); with A549 it was 15.3 µM (inactive); with OVCAR-8, 6.46 µM (inactive); in the assay with COLO 205, 5.48 µM (inactive); in the assay with UACC-257, 23.7 µM (inactive); with HL-60 it was 2.7 µM (inactive). The GI50 with HCC 2998 is 50.1 µM (inactive); in the assay on PC-3, 14.3 µM (inactive); in the assay with NCI/ADR-RES, 8.28 µM (inactive); in the assay on UACC-62, 12.6 µM (inactive); in the assay with K562, 1.76 µM (inactive); with SF-268 it was 9.82 µM (inactive). Besides, in the assay on OVCAR-4, the GI50 was 16.9 µM (inactive).
`O=C(ON=C1c2ccccc2C(Br)C(Br)c2ccccc21)c1cc([N+](=O)[O-])cc([N+](=O)[O-])c1` (stereo not given): the GI50 in the assay on DU-145 was 25.9 µM (inactive); with CAKI-1, 20.5 µM (inactive); in the assay with M14 it was 17.6 µM (inactive); in the assay with TK-10 it was 23.2 µM (inactive); in the assay with SK-OV-3 it was 27.1 µM (inactive); in the assay with 786-0, 14.9 µM (inactive). For the same molecule, the GI50 with HT-29 was 16.3 µM (inactive); in the assay on A549 it was 30.4 µM (inactive); in the assay on OVCAR-8, 17.3 µM (inactive); with COLO 205 it was 20.3 µM (inactive); with UACC-257, 18 µM (inactive); in the assay on HL-60, 0.158 µM (active). Also, the GI50 with HCC 2998 is 29.4 µM (inactive); with PC-3 it was 28.5 µM (inactive); with NCI/ADR-RES, 19.6 µM (inactive); in the assay on UACC-62, 18.7 µM (inactive); with K562, 16.9 µM (inactive); with SF-268, 17.8 µM (inactive). Besides, the GI50 in the assay on OVCAR-4 is 22.2 µM (inactive).
For the molecule `Cc1ccc(/C=N/n2c(-c3ccc(C)cc3)n[nH]c2=O)cc1`, the GI50 in the assay with DU-145 was 91.6 µM (inactive); with CAKI-1, 35.9 µM (inactive); in the assay on M14, 68.4 µM (inactive); with TK-10, 60.8 µM (inactive); in the assay on SK-OV-3, 28.7 µM (inactive); with 786-0, 29.6 µM (inactive). For the same molecule, the GI50 in the assay with HT-29 is > 100 µM (inactive); in the assay on A549 it was 41 µM (inactive); in the assay on OVCAR-8, 36.7 µM (inactive); in the assay on COLO 205, > 100 µM (inactive); with UACC-257, > 100 µM (inactive); in the assay with HL-60 it was > 100 µM (inactive). The GI50 was > 100 µM (inactive) with HCC 2998; > 100 µM (inactive) with PC-3; 59.6 µM (inactive) in the assay on NCI/ADR-RES; 78 µM (inactive) in the assay with UACC-62; 96.4 µM (inactive) in the assay with K562; > 100 µM (inactive) in the assay with SF-268. In addition, in the assay on OVCAR-4, the GI50 was 40 µM (inactive).
As for `O=C(O)c1ccccc1/C=N\N=C1NCCN1`, the GI50 in the assay with DU-145, in the assay with CAKI-1, in the assay with M14, in the assay with TK-10, in the assay with SK-OV-3 and with 786-0 was > 100 µM (inactive) throughout. In addition, the GI50 with HT-29, with A549, with OVCAR-8, in the assay with COLO 205, with UACC-257 and in the assay on HL-60 was > 100 µM (inactive) each time. Moreover, the GI50 in the assay on HCC 2998, with PC-3, in the assay with NCI/ADR-RES, in the assay with UACC-62, with K562 and in the assay on SF-268 was > 100 µM (inactive) each time. The GI50 with OVCAR-4 is > 100 µM (inactive).
Turning to `COC(=O)[C@@]12C(=O)C(C)C(=O)[C@]1(C)C(C)=C[C@H]1[C@]3(C=O)CC[C@H](OC(C)=O)C(C)(C)[C@H]3CC[C@@]12C` (stereo not given in full), the GI50 in the assay with DU-145 is > 100 µM (inactive); in the assay with CAKI-1, 93.1 µM (inactive); with M14, > 100 µM (inactive); in the assay with TK-10, > 100 µM (inactive); in the assay with SK-OV-3, > 100 µM (inactive); in the assay on 786-0 it was > 100 µM (inactive). Further, the GI50 was > 100 µM (inactive) with HT-29; > 100 µM (inactive) in the assay with A549; > 100 µM (inactive) in the assay with OVCAR-8; > 100 µM (inactive) in the assay on COLO 205; > 100 µM (inactive) with UACC-257; 17.7 µM (inactive) in the assay with HL-60. Further, the GI50 is > 100 µM (inactive) in the assay on HCC 2998; > 100 µM (inactive) in the assay on PC-3; > 100 µM (inactive) in the assay on NCI/ADR-RES; > 100 µM (inactive) in the assay with UACC-62; 38.6 µM (inactive) in the assay with K562; > 100 µM (inactive) with SF-268. In addition, the GI50 in the assay on OVCAR-4 is > 100 µM (inactive).
Take `COC[C@H]1C(=O)NCC(=O)N2N=CCC[C@H]2C(=O)N(O)[C@H](C)C(=O)O[C@@H](C(C)C)[C@H](NC(=O)[C@@](C)(O)[C@]2(O)CC[C@@H](CC(C)C)[C@H](C)O2)C(=O)N2NCCC[C@@H]2C(=O)N1O`: the GI50 with DU-145 was 0.0343 µM (active); with CAKI-1, 0.133 µM (active); in the assay on M14, 0.0183 µM (active); in the assay on TK-10 it was 0.0218 µM (active); in the assay with SK-OV-3, 0.0273 µM (active); with 786-0, 0.0174 µM (active). The GI50 with HT-29 was 0.0172 µM (active); with A549, 0.019 µM (active); with OVCAR-8 it was 0.0185 µM (active); with COLO 205 it was 0.0175 µM (active); in the assay on UACC-257, 0.0184 µM (active); with HL-60, 0.0148 µM (active). Further, the GI50 was 0.0169 µM (active) in the assay on HCC 2998; 0.0175 µM (active) with PC-3; 0.316 µM (active) in the assay on NCI/ADR-RES; 0.0176 µM (active) with UACC-62; 0.02 µM (active) with K562; 0.0163 µM (active) with SF-268. Moreover, in the assay with OVCAR-4, the GI50 was 0.0168 µM (active).
Turning to `CC(=O)c1cc2c(s1)C(=O)c1ccccc1C2=O`, the GI50 was 1.26 µM (inactive) with DU-145; 9.53 µM (inactive) in the assay with CAKI-1; 0.557 µM (active) in the assay with M14; 5.47 µM (inactive) with TK-10; 15.3 µM (inactive) with SK-OV-3; 5.93 µM (inactive) with 786-0. Moreover, the GI50 was 3.4 µM (inactive) in the assay with HT-29; 3.52 µM (inactive) with A549; 1.74 µM (inactive) in the assay on OVCAR-8; 4.72 µM (inactive) with COLO 205; 1.57 µM (inactive) with UACC-257; 2.13 µM (inactive) in the assay on HL-60. Moreover, the GI50 in the assay with HCC 2998 is 5.37 µM (inactive); in the assay with PC-3, 3.24 µM (inactive); in the assay with NCI/ADR-RES it was 1.89 µM (inactive); in the assay with UACC-62 it was 2.51 µM (inactive); in the assay with K562, 2.09 µM (inactive); in the assay with SF-268, 2.73 µM (inactive). Besides, in the assay on OVCAR-4, the GI50 was 3.52 µM (inactive).
Take `Cc1ccc(Nc2nc(O)c3[nH]cnc3n2)cc1CO`: the GI50 with DU-145 is 19.5 µM (inactive); in the assay on CAKI-1 it was 15.2 µM (inactive); with M14, 12.8 µM (inactive); in the assay on TK-10 it was 18 µM (inactive); in the assay with SK-OV-3, 13.5 µM (inactive); in the assay with 786-0, 15.7 µM (inactive). In addition, the GI50 was 8.87 µM (inactive) in the assay on HT-29; 3 µM (inactive) with A549; 16.6 µM (inactive) in the assay on OVCAR-8; 14.6 µM (inactive) in the assay with COLO 205; 17.3 µM (inactive) with UACC-257; 1.7 µM (inactive) in the assay on HL-60. Also, the GI50 is 15.5 µM (inactive) in the assay on HCC 2998; 12.8 µM (inactive) with PC-3; 15.4 µM (inactive) in the assay with NCI/ADR-RES; 13 µM (inactive) in the assay with UACC-62; 15.9 µM (inactive) with K562; 20.7 µM (inactive) with SF-268. Also, the GI50 with OVCAR-4 is 17.1 µM (inactive).
